Source: patent US6897019B1, “Methods for treating and preventing insulin resistance and related disorders” (priority 1998, dated 2005)
Entries after “also recorded” stand apart in the source; their conditions may differ.

Key:
[1] = Ehrman et al. 1997; cited from earlier work
3T3-L1 adipocytes [2] = experiment: Lipolysis (glycerol in culture medium) of 3T3-L1 adipocytes with or without TNF-α; type: cell-based, Mouse; conditions: for blocked share of the increase in glycerol release due to TNF-α: BRL 10 μM or PGJ2 15 μM, last 24 hours; for reduction of the increase in glycerol release associated with TNF-α: then 24 hours TNF-α plus BRL 1 μM; for increase in glycerol accumulation versus untreated controls: last 24 hours of 5-day treatment
Procedure: 3T3-L1 adipocytes used in this example were obtained from 3T3-L1 fibroblasts as follows. 3T3-L1 fibroblasts (ATCC Deposit NO. CL-173, described in U.S. Pat. No. 4,003,789) were cultured in Dulbecco's Modified Eagle's Medium (DMEM) containing 10% bovine calf serum, and induced to differentiate into adipocytes using standard protocols, as described, e.g., in Kohanski et al. (1996) J. Biol. Chem. 261:12272. Adipocytes were used 10-15 days after the differentiation protocol was initiated.
(§1) Differentiated 3T3-L1 adipocytes cultured in 12 well plates were incubated overnight in DMEM+0.5% BSA in the absence of serum. The following morning, the cells were incubated in the presence or absence of 2 mM or 20 mM sodium salicylate (NaSal) and treated with recombinant murine TNF-α (m TNF-α; Genzyme; Cambridge, Mass.) with or without 17 μM 15-deoxy-^12,14-PGJ2 (“PGJ2”; Cayman Chemical; Ann Arbor, Mich.) or 10 μM BRL 49653 (“BRL”; Smith Kine Beecham (Hamish Ross) (King of Prussia, Pa.)) for 24 hours. The glycerol content in the culture medium was determined using a colorimetric assay (GPO-Trinder, Sigma, St Louis, […].). Protein content was determined using the BCA (bicinchonic acid) protein assay (Pierce, Rockford, Ill.). The results are indicated as nmol glycerol per mg protein.
Accordingly, 3T3-L1 adipocytes were treated with BRL at 10 μM, 1 μM or 1 nM and TNF-α as described above, and the amount of glycerol was determined after 24 hours.
3T3-L1 adipocytes were treated with TNF-α (2 or 10 ng/ml), TNF-α plus BRL at 10 μM, TNF-α plus PGJ2 at 15 μM, or BRL or PGJ2 alone for 5 days. The media was replaced everyday and collected on day 5 to measure accumulation of glycerol.
[…] The glycerol content in the culture medium was determined as described above.
3T3-L1 adipocytes prepared as described in Example 1 were preincubated with various amounts (0-50 μM) of the p38 kinase inhibitor SB203580 and then treated with 10 ng/ml TNF-α for 24 hours and the amount of glycerol in the culture medium determined as described above. […]

human adipocytes = experiment: TNF-α induced lipolysis in primary cultures of human adipocytes; type: cell-based; conditions: PD98059 72 hours pretreatment, then 24 hours 100 ng/ml human TNF-α
Procedure: Similar results were also obtained using primary cultures of human adipocytes. Primary cultures of human adipocytes, obtained from Zen-Bio were pretreated for 72 hours with PD98059 and then for 24 hours with 100 ng/ml of human TNF-α.

ERK1/2 [3] = experiment: ERK 1/2 kinase assay (MBP substrate) on extracts of treated 3T3-L1 adipocytes; type: cell-based, Mouse
Procedure: In this example, 3T3-L1 cells were treated as described in Example 2, and cell extracts were used in an ERK 1/2 kinase assay, using MBP (myelin basic protein) as a substrate. The assay used is described in Boulton et al. (1991) Cell Reg. 2: 357.
(§2) 3T3-L1 adipocytes prepared as described in Example 1 were pretreated for 3 hours with or without 20 mM NaSal or 100 μM PD98059 and then treated for 15 minutes with or without 10 ng/ml mTNF-α and with or without 10 μM BRL. Cell extracts were then prepared and used in ERK 1/2 kinase and JNK-1 kinase assays, as described above.
(§3) 3T3-L1 cells were pretreated for 3 days with 17 μM of PGJ2 and then for 15 minutes with 10 ng/ml TNF-α. The amount of phosphorylated (thus activated) JNK-1, ERK1/2, and p38 was determined by Western blot using an antibody specifically recognizing phosphorylated forms of the proteins. As a control, the total amount of JNK-1, ERK1/2 and p38 protein was determined by Western blot using an antibody recognizing the phosphorylated and non phosphorylated forms of the protein. The activity of ERK1/2 and JNK kinases was also determined in a kinase assay using MBP and a portion of c-jun, respectively, as substrate.

JNK-1 [4] = experiment: JNK-1 kinase assay (c-jun substrate) on extracts of treated 3T3-L1 adipocytes; type: cell-based, Mouse
Procedure: 3T3-L1 adipocytes were pretreated for 3 hours with or without 20 mM NaSal, with or without 100 μM MAP kinase kinase (MEK) inhibitor PD98059 (Biomol; Cat. No. EI-360) and then for 15 minutes with 10 ng/ml mTNF-α. JNK-1 kinase assays were then performed with extracts of each of these cell cultures on an N-terminal portion of c-jun, as described in Derjarde et al. (1994) Cell 76: 1025.
as §2, §3

JNK = conditions: FS4 fibroblasts; Schwenger et al. 1997; cited from earlier work
p42/1p44 MAP kinases = conditions: FS4 fibroblasts; Schwenger et al. 1996; cited from earlier work
ERK1/2 [5] = experiment: Western blot of phosphorylated ERK1/2 in 3T3-L1 cells; type: cell-based, Mouse; conditions: 3 days 17 μM PGJ2, then 15 minutes 10 ng/ml TNF-α
Procedure: as §3

3T3-L1 adipocytes [6] = experiment: Catecholamine (isoproterenol)-induced glycerol release from 3T3-L1 adipocytes; type: cell-based, Mouse; conditions: BRL or PGJ2
JNK-1 [7] = experiment: Western blot of phosphorylated JNK-1 in 3T3-L1 cells; type: cell-based, Mouse; conditions: 3 days 17 μM PGJ2, then 15 minutes 10 ng/ml TNF-α
Procedure: as §3

p38 = experiment: Western blot of phosphorylated p38 in 3T3-L1 cells; type: cell-based, Mouse; conditions: 3 days 17 μM PGJ2, then 15 minutes 10 ng/ml TNF-α
Procedure: as §3

3T3-L1 adipocytes [8] = experiment: TNF-α induced FFA release from 3T3-L1 adipocytes (NEFA-C colorimetric kit); type: cell-based, Mouse; conditions: 24 hours
Procedure: as §1
In this example, cells were treated for 24 hours as described above, and FFA levels in the culture medium were determined using a colorimetric kit (NEFA-C, WAKO Pure Chemicals, Osaka, Japan).

HSL = experiment: Western blot of HSL protein in 3T3-L1 adipocytes; type: cell-based, Mouse; conditions: TNF-α 10 ng/ml, 24 hours
Procedure: (§4) 3T3-L1 adipocytes were treated with TNF-α at 10 ng/ml, TNF-α plus BRL (10 μM), or BRL alone for 24 hours, following which cell lysates were collected and analyzed by Western blotting using antibodies against HSL and perilipin A proteins. Perilipin antibodies were generated by immunization of rabbits with a peptide identical to amino acids 9-23 of the rat perilipin protein (Greenberg et al. (1993) PNAS 90:12035). Antibodies to HSL were prepared by injecting a peptide based upon the rat HSL sequence (GeneBank) (KDLSFKGNSPEPSDSPEMC; SEQ ID NO: 1) into rabbits. Antibodies were subsequently affinity purified and used for Western blotting at a dilution of 1:1500. Western blotting was performed as follows: adipocytes are briefly rinsed with 1 ml of phosphate saline buffer (PBS, pH 7.4). Proteins were extracted by adding 200 μl of lysis buffer containing 50 mM Hepes, pH 7.4, 100 mM Nacl, 2 mM EDTA, 5% SDS, 0.1 mM Na3V) 4 , 50 mM NaF, 1 mM benzamidine, 100 μM AEBSF, adn 10 μg/ml aprotinin. Equivalent amounts of protein were separated by 10% SDS-PAGE, electrophoretically transferred to nitrocellulose membranes, incubated with primary antibody and subsequentely with donkey anti-rabbit IgG conducaged with horseradish peroxidase. Proteins were detected with enhanced chemiluminescence (ECL) system (Amersham).

perilipin A = experiment: Western blot of perilipin A protein in 3T3-L1 adipocytes; type: cell-based, Mouse; conditions: TNF-α 10 ng/ml, 24 hours
Procedure: as §4, with “(Amersham). […]” for “(Amersham).”

[9] = PD98059, pretreatment for 3 hours
[10] = 3 hours pretreatment with 20 mM NaSal or 100 μM PD98059, then 15 minutes 10 ng/ml TNF-α
[11] = 3 days 17 μM PGJ2, then 15 minutes 10 ng/ml TNF-α

## Cc1c(C)c2c(c(C)c1O)CCC(C)(COc1ccc(CC3SC(=O)NC3=O)cc1)O2 (stereo not shown) [troglitazone, 5-[[4-[(3,4-dihydro-6-hydroxy-2,5,7,8-tetramethyl-2H-1-benzopyran-2-yl)methoxy]phenyl]methyl]-2,4-thiazolidinedione]
[1]
  efficacy in PCOS: effective

## COc1cccc(-c2cc(=O)c3ccccc3o2)c1N [PD98059]
3T3-L1 adipocytes [2]; 100 μM PD98059, 24 hours pretreatment, then TNF-α 24 hours
  decrease of TNF-α induced lipolysis, factor: less than 2 factor
3T3-L1 adipocytes [2]; [9]
  reduction of TNF-α induced lipolysis: about 76%
  reduction of TNF-α induced lipolysis, factor: about 3 factor
Human adipocytes
  TNF-α induced lipolysis in human cells: reduced
ERK1/2 [3]; 100 μM PD98059 3 hours, then 15 minutes 10 ng/ml TNF-α
  increase of MBP phosphorylation in the presence of TNF-α and inhibitor, factor: less than two
ERK1/2 [3]; 100 μM PD98059 (Example 6, FIG. 6)
  inhibition of MAP kinase activation: at least 90%
ERK1/2 [3]; [10]
  TNF-α induced ERK1/2 activation (kinase activity): inhibited

## C[S+]([O-])c1ccc(-c2nc(-c3ccncc3)c(-c3ccc(F)cc3)[nH]2)cc1 (stereo not shown) [SB203580]
3T3-L1 adipocytes [2]; SB203580 0-50 μM preincubation, then 10 ng/ml TNF-α 24 hours
  release of glycerol from the adipocytes: increases the release of glycerol
3T3-L1 adipocytes [2]; SB203580, 10 ng/ml TNF-α 24 hours
  concentration up to which glycerol release is proportional to the amount added: ≤ 20 µM

## O=C([O-])c1ccccc1O.[Na+] [NaSal, sodium salicylate]
3T3-L1 adipocytes [2]; 2 mM NaSal
  ability of TNF-α to increase lipolysis: partially reduced
3T3-L1 adipocytes [2]; 2 mM NaSal, induced by 10 ng/ml TNF-α, 24 hours
  inhibition of glycerol production, factor: ~2 factor
3T3-L1 adipocytes [2]; 20 mM NaSal
  ability of TNF-α to increase lipolysis: completely blocked
3T3-L1 adipocytes [2]; 2 or 20 mM NaSal, TNF-α 2 ng/ml (Panel A) or 20 ng/ml (Panel B), 24 hours
  inhibition of TNF-α induced lipolysis: significantly inhibited
3T3-L1 adipocytes [2]; induced by 2 ng/ml TNF-α, NaSal 2 or 20 mM, 24 hours
  inhibition of glycerol production, factor: 3-4 factor
JNK-1 [4]; [10]
  TNF-α induced JNK-1 activation (kinase activity): significantly reduced; also recorded: decreases
JNK
  inhibition of TNF-induced activation of JNK: capable of inhibiting
ERK1/2 [3]; 20 mM NaSal 3 hours, then 15 minutes 10 ng/ml TNF-α
  inhibition of ERK1/2 activation: about two
p42/1p44 MAP kinases
  inhibition of TNF-induced activation of p42/1p44 MAP kinases: capable of inhibiting

## CCCCC/C=C/C=C1/C(=O)C=C[C@@H]1C/C=C\CCCC(=O)O [PGJ2, 15-deoxy-^12,14-PGJ2]
3T3-L1 adipocytes [2]; 10 μM BRL or 17 μM PGJ2, TNF-α 2 or 10 ng/ml, 24 hours
  inhibition of TNF-α induced lipolysis: significantly inhibited; also recorded: inhibit
3T3-L1 adipocytes [2]; 5 days, TNF-α 2 or 10 ng/ml
  blocked share of the increase in glycerol release due to TNF-α: about 100%
3T3-L1 adipocytes [2]; BRL or PGJ2 alone, 5 days
  glycerol accumulation versus control (untreated) cells: not different from levels measured in control
3T3-L1 adipocytes [2]; added to cells incubated with 20 mM NaSal, TNF-α, 24 hours
  further reduction of lipolysis when added to NaSal: did not further reduce lipolysis
ERK1/2 [5]
  phosphorylation of ERK1/2: significantly reduces
JNK-1 [4]; [11]
  TNF-α induced increase in JNK-1 kinase activity: to a lesser extent
3T3-L1 adipocytes [6]
  block of isoproterenol-induced glycerol release: neither BRL nor PGJ2 was able to block
JNK-1 [7]
  phosphorylation of JNK-1: significantly reduces
ERK1/2 [3]; [11]
  TNF-α induced increase in ERK1/2 kinase activity: significantly inhibits
p38
  phosphorylation of p38: significantly reduces

## CN(CCOc1ccc(CC2SC(=O)NC2=O)cc1)c1ccccn1 (stereo not shown) [BRL, rosiglitazone]
3T3-L1 adipocytes [2]; 24 hour pretreatment with TNF-α 2 ng/ml
  reduction of the increase in glycerol release associated with TNF-α: about 65%
3T3-L1 adipocytes [2]; 24 hour pretreatment with TNF-α 10 ng/ml
  reduction of the increase in glycerol release associated with TNF-α: about 50%
3T3-L1 adipocytes [2]; 72 hour pretreatment with BRL, no TNF-α
  inhibition of basal lipolysis: approximately 30%
3T3-L1 adipocytes [2]; 5 days, TNF-α 2 or 10 ng/ml
  blocked share of the increase in glycerol release due to TNF-α: about 100%
3T3-L1 adipocytes [2]; BRL, Example 6 (72 hour pretreatment context)
  inhibition of TNF-α induced lipolysis: > 90%
3T3-L1 adipocytes [2]; after addition of BRL to TNF-α pretreated cells
  earliest time point at which the effect of TNF-α on glycerol release began to reverse: 6 h
3T3-L1 adipocytes [8]; BRL alone, no TNF-α
  effect on FFA release: no effect
3T3-L1 adipocytes [8]; BRL, 10 ng/ml TNF-α
  reduction of TNF-α induced FFA release: about 90%
ERK1/2 [3]; 72 hour pretreatment with 5 μM BRL, then TNF-α 10 ng/ml 15 minutes in the presence of BRL
  reduction in activation of ERK, factor: about 2.5 factor

## TNF-α
3T3-L1 adipocytes [2]; 2 ng/ml TNF-α
  increase in glycerol accumulation versus untreated controls: ~10 fold
3T3-L1 adipocytes [2]; 10 ng/ml TNF-α
  increase in glycerol accumulation versus untreated controls: ~13 fold
HSL
  HSL protein expression versus untreated controls: slightly decreased
ERK1/2 [3]; 10 ng/ml TNF-α, 15 minutes
  increase in phosphorylation of the MBP substrate (ERK1/2 activation): seven
Perilipin A
  expression of perilipin A protein versus untreated controls: markedly decreased
